Results on 4 compounds are retold here after patent publication US10324085B2, “Systems and methods for the monitoring of protein complex formation in cells” (priority 2013, dated 2019).

What is called EC50 is the concentration needed to bring the measured effect to its halfway point.

Values joined by “and” are separate entries in the source; they are usually repeats but may differ in a detail not shown here. Identical values can stand only once. Like-named read-outs stand apart in the source and are kept apart here.

For test [1], the target named is T1, ERα-ERα (Homo sapiens, UniProt P03372).
T1 construct: expressed in transfected cells; host or cells: HEK293
Briefly: cell-based.
Target sequence in this assay (P03372 whole entry): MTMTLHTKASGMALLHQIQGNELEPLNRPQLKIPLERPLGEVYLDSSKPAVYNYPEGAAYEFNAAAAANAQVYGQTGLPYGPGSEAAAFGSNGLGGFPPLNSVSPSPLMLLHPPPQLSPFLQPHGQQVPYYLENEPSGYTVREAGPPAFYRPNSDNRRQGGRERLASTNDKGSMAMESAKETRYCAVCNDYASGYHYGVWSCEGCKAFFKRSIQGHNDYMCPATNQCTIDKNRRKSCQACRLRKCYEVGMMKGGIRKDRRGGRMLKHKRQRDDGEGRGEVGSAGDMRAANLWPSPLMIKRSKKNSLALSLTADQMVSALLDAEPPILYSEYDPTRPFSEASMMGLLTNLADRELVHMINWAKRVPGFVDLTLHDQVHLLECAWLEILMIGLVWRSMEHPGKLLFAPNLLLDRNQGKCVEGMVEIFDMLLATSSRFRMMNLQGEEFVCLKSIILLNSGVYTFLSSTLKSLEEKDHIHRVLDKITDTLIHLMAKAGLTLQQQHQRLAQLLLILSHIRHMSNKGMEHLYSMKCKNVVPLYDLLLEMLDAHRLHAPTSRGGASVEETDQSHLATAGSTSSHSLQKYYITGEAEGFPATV

The target of test [2] is T2, RXRγ-RARα-CoRNBox complex (Homo sapiens, UniProt P10276).
T2 construct: expressed in transfected cells; host or cells: HEK293
T2 sequence (P10276 1-462): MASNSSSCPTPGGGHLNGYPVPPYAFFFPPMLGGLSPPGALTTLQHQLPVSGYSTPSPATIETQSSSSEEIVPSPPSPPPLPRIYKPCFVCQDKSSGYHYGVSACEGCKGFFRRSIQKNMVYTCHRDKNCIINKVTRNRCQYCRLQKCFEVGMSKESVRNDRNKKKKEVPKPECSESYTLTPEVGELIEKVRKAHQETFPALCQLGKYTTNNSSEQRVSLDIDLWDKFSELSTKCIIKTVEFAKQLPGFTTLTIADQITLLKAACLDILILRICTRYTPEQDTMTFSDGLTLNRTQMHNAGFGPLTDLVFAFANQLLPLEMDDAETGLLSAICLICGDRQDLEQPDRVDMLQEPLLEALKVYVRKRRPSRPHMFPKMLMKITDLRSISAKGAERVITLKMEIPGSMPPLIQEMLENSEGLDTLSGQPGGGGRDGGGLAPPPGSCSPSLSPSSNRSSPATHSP
T2 sequence (P48443 1-463 partner): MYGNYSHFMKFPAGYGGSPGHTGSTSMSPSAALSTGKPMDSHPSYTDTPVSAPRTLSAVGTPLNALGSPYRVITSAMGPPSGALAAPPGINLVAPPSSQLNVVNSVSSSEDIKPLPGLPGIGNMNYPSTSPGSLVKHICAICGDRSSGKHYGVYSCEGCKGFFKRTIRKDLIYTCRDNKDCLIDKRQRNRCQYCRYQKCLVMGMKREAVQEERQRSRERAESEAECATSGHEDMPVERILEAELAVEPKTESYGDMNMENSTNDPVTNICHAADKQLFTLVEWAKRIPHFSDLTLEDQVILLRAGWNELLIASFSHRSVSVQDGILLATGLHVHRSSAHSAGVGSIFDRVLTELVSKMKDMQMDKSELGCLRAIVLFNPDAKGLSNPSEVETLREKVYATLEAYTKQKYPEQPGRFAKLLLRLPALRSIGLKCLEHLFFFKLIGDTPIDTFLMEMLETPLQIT
Briefly: BRETFect RXRγ-RARα-CoRNBox ternary complex in HEK293 cells. Format: cell-based. To be noted: 1 μM, 40 min.
Procedure: Cells were treated for 40 min with vehicle DMSO (0) or all-trans retinoic acid (ATRA) before coelenterazine H addition and BRET measurement.

Another test has as its target ERβ (Homo sapiens, UniProt Q92731).
Test [3] concerns the target T1, ERα-ERα. Put plainly: cell-based. Particulars: BRETFect titration curves, HEK293 cells, average of three biological replicates; read-out: EC50 (nM), recruitment of SRC1-RID, ERα-ERα.
Target sequence in this assay (P03372 whole entry): as the sequence (P03372 whole entry) above
Target sequence in this assay (Q15788 626-753, further chain): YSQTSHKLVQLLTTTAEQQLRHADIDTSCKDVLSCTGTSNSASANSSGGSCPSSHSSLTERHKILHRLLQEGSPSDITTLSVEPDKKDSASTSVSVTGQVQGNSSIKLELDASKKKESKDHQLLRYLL
Test [4] deals with T3, ERα-ERβ (Homo sapiens, UniProt P03372+Q92731).
T3 construct: expressed in transfected cells; host or cells: HEK293
Put plainly: cell-based.
Target sequence in this assay (Q92731 whole entry): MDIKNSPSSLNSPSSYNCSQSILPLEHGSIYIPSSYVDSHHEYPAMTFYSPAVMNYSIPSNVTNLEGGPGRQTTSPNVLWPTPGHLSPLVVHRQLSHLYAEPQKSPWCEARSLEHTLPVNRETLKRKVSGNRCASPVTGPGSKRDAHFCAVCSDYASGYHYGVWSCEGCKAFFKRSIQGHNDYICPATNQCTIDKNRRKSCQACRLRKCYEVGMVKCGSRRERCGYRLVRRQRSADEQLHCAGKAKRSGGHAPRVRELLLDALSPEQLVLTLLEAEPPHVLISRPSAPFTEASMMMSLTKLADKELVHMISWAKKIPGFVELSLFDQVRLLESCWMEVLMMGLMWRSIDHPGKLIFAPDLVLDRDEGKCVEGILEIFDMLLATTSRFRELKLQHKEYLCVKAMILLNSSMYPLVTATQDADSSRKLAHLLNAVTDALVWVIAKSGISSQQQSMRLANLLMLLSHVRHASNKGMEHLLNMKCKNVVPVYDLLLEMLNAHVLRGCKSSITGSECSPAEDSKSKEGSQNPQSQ
Target sequence in this assay (P03372 whole entry): as the sequence (P03372 whole entry) above
Target sequence in this assay (as listed by the source): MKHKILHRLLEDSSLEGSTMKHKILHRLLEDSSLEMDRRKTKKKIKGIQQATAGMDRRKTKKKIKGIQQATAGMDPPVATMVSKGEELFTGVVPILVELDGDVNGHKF

Test [5] addresses T3, ERα-ERβ. Put plainly: cell-based. Particulars: BRETFect titration curves, HEK293 cells, average of three biological replicates; read-out: EC50 (nM), recruitment of SRC1-RID, ERα-ERβ.
Target sequence in this assay (Q15788 626-753): as the sequence (Q15788 626-753, further chain) above
Target sequence in this assay (P03372 whole entry): as the sequence (P03372 whole entry) above
Target sequence in this assay (Q92731 whole entry): as the sequence (Q92731 whole entry) above

Sequence of ERβ (Q92731 whole entry, species assumed): as the sequence (Q92731 whole entry) above

Consider 4-hydroxytamoxifen [OHT], for which the “BRETFect signal (delta BRET), coactivator motif recruitment to ERα dimers” value at ERα-ERα [1] is “suppresses coactivator motif recruitment”.

For `CC1=C(/C=C/C(C)=C/C=C/C(C)=C/C(=O)O)C(C)(C)CCC1` [ATRA, all-trans retinoic acid], the “RXRγ-RARα-CoRNBox ternary complex, net BRET” value in test [2] was “the ternary complex is disassembled”.

With `C[C@]12CC[C@@H]3c4ccc(O)cc4CC[C@H]3[C@@H]1CC[C@@H]2O` [E2, 17-beta-Estradiol], the “recruitment of CoApep-Venus to ERβ, BRET” value on ERβ is “E2-induced”.

On to `CCCc1c(-c2ccc(O)cc2)nn(-c2ccc(O)cc2)c1-c1ccc(O)cc1` [PPT, propylpyrazole triol], for which the half-maximal effective concentration (EC50) on ERα-ERα [1] (BRETFect titration curves, HEK293 cells, average of three biological replicates, read-out: EC50 (nM), recruitment of the coactivator motif peptide, ERα-ERα) was 0.5 nM and 0.547 nM; on ERα-ERα [3] it was 0.968 nM; at ERα-ERβ [4] (BRETFect titration curves, HEK293 cells, average of three biological replicates, read-out: EC50 (nM), recruitment of the coactivator motif peptide, ERα-ERβ), 28 nM and 28.4 nM; at ERα-ERβ [5], 25.1 nM. Besides, the “% of the BRETmax for CoApep recruitment by ERα-ERβ heterodimer” value on ERα-ERβ [4] (relative to BRETmax observed with E2) is recorded as 50%.
